These are literature values, as cited in US10653667B2, “Drug for preventing, treating or preventing metastasis of giant cell tumor that occurs in bone or soft parts, chondrosarcoma, or osteosarcoma, local injection for arterial embolization, and artificial bone” (NIPPON CHEMIPHAR CO., LTD, priority 2013, dated 2020).

In data set [1] the test system is OST cells, human bone sarcoma-derived cultured cells. The settings on record: transdermally administered; after four weeks; cited from earlier work.
In data set [2] the test system is synovial cells derived from rheumatism patients. The conditions noted are these: cited from earlier work.

Molecules are shown by their SMILES.

On to `CC(C(=O)O)c1cccc(C(=O)c2ccccc2)c1` (stereo not shown) [ketoprofen], for which the “tumor weight relative to placebo group” value in data set [1] is reported as 48%. In data set [2], the “activation of PPARγ” value is reported as “did not cause activation of PPARγ”, the apoptosis entry was “did not cause” and the “suppression of proliferation of the cells” value is on record as “did not cause”.
